{
  "source": "patent US7622447B2",
  "about": "“Use of glutathione synthesis stimulating compounds in reducing insulin resistance” (DiaMedica Inc., priority 2002, dated 2009)",
  "key": {"[1]": {"test_system": "Wistar rats", "assay": "Rapid Insulin Sensitivity Test (RIST), euglycemic clamp, in saline and BSO (GSH-depleted) rats", "format": "in vivo, rat", "from_the_text": "The rapid insulin sensitivity test (RIST) was employed (Lautt et al., Can. J. Physiol. Pharmacol. 76:1080 (1998)) is employed to avoid the complexity of the reaction to hypoglycemia. The RIST involves use of a euglycemic clamp following the administration of insulin and quantitation of the response as the amount of glucose required to be infused over the test period in order to hold arterial blood glucose levels constant. […] It is highly reproducible with up to five consecutive responses being obtainable in cats and four in rats with blood glucose levels returning to control levels between each test. Insulin, glucagon, and catecholamine levels remain unchanged between tests.\n(§1) Summary: GSH depletion was induced in 5 week old Wistar rats using buthionine sulfoximine (BS), 2 mmol/kg bw, i.p. for 20 days. Control rats were injected with an equal volume of saline. Insulin sensitivity was measured using a euglycemic clamp, the Rapid Insulin Sensitivity Test—RIST. In both the saline group (SG) and BSO group (BG) a control RIST followed by a RIST post-L-NAME (1 mg/kg i.p.v.), a NOS competitive antagonist, and a RIST post-SIN-1 (5 mg/kg i.p.v.), a NO donor, were performed. The liver was removed for further determined of hepatic GSH content using the GSH peroxidase-reductase assay. […] The control RIST, 248.0±15.8 mg glucose/kg for SG, was impaired in the BG (158.4±12.2 mg glucose/kg; p<0.01). After L-NAME the SG RIST was 129.0±1.9 mg glucose/kg and the BG RIST was 109.0±9.1 mg glucose/kg. […] HISS action, quantified by subtracting the post L-NAME RIST from the control RIST, was 114.0±15.8 mg glucose/kg for SG and only 49.3±8.6 mg glucose/kg for BG (p<0.01). HISS dependent insulin resistance appears to be related to impaired levels of GSH in the liver, leading to a compromised HISS secretion/release.\nMale Wistar rats (8 weeks) were anaesthetized with sodium pentobaribtial (65 mg/kg). Body temperature was maintained at 37±0.5 °C. An arterial-venous loop (carotid artery and internal jugular vein) was employed. A catheter was inserted into the portal vein.\nRIST (Rapid Insulin Sensitivity Test): Blood samples (25 μl) for arterial glucose analysis were taken from the arterial-venous loop. A stable glucose baseline was established. Insulin (50 mU/kg i.v.) was infused over 5 minutes. Arterial blood samples were taken every 2 minutes. Glucose was adjusted to maintain euglycemia. RIST index=mg glucose/kg infused during RIST."}, "[2]": {"test_system": "hepatic GSH", "assay": "Hepatic GSH content by GSH peroxidase-reductase assay", "format": "in vivo, rat", "protocol": "as §1, with “Test-RIST.” for “Test—RIST.”, “post-[…]” for “post-L-NAME (1 mg/kg i.p.v.), a”, “secretion/release. […] CONTENT: […] Hepatic GSH content was decreased in 48.3±6.9% in BSO group. ***=p<0.001.” for “secretion/release.”"}, "[3]": {"test_system": "fasting-induced HDIR", "assay": "Fasting-induced HISS-dependent insulin resistance (HDIR) model, overnight fast", "format": "in vivo", "from_the_text": "A model of low hepatic GSH and NO production is produced by overnight fasting."}, "[4]": {"test_system": "hepatic glutathione", "details": "cited from earlier work"}, "[5]": {"test_system": "HISS", "assay": "HISS action after NOS blockade", "format": "in vivo"}, "[6]": {"test_system": "cats", "details": "cited from earlier work"}},
  "note": "Values joined by “and” are separate entries in the source; they are usually repeats but may differ in a detail not shown here. Identical values can stand only once. “Also recorded” adds a separate entry of the source.",
  "data": [
    {"compound": "CCCCS(=N)(=O)CCC(N)C(=O)O", "note": "(centres unmarked) [BSO, buthionine sulfoximine]", "values": [
      {"measurement": "control RIST index in BSO group", "setting": "[1]; BSO 2 mmol/kg bw i.p. for 20 days, before L-NAME", "result": "158.4±12.2", "unit": "mg glucose/kg"},
      {"measurement": "decrease of HISS action", "setting": "[1]; BSO group compared to control group", "result": 64.4, "unit": "%"},
      {"measurement": "HISS-independent component of insulin action", "setting": "[1]; BSO group versus control group", "result": "not different"},
      {"measurement": "HISS action (HISS-dependent component of insulin action)", "setting": "[1]; BSO group, control RIST minus post L-NAME RIST", "result": "49.3±8.6 mg glucose/kg and 49.3±8.56 mg glucose/kg"},
      {"measurement": "reduction in hepatic GSH content", "setting": "[2]; BSO group compared to saline/control group", "result": "48.3±6.9", "unit": "%"},
      {"measurement": "hepatic GSH content", "setting": "[2]; BSO group, BSO 2 mmol/kg bw i.p. for 20 days", "result": "2.96±0.4", "unit": "μmol/g fresh liver"}
    ]},
    {"compound": "N[C@@H](CCC(=O)N[C@@H](CS)C(=O)NCC(=O)O)C(=O)O", "note": "[GSH, glutathione]", "values": [
      {"measurement": "reversal of HDIR / reduction in insulin resistance by GSH alone", "setting": "[3]; GSH by itself", "result": "small but significant reduction in insulin resistance; also recorded: minor reversal of HDIR"},
      {"measurement": "insulin sensitivity / reversal of HDIR by GSH together with NO donor", "setting": "[3]; GSH plus NO / NO donor", "result": "Improved insulin sensitivity; also recorded: only becomes therapeutically significant after the addition of the NO donor"}
    ]},
    {"compound": "COC(=O)[C@@H](N)CCCNC(=N)N[N+](=O)[O-]", "note": "[L-NAME]", "values": [
      {"measurement": "RIST index post-L-NAME in BSO group", "setting": "[1]; BSO-treated rats, L-NAME 1 mg/kg intraportal", "result": "109.0±9.1 mg glucose/kg and 109.8±9.1 mg glucose/kg"},
      {"measurement": "inhibition of RIST index by L-NAME", "setting": "[1]; control group, L-NAME 1 mg/kg i.p.v.", "result": "52.3±5.8", "unit": "%"}
    ]},
    {"compound": "C[S+](CC[C@H](N)C(=O)O)C[C@H]1O[C@@H](n2cnc3c(N)ncnc32)[C@H](O)[C@@H]1O", "note": "(some centres unmarked) [SAMe, S-adenosylmethionine]", "values": [
      {"measurement": "time of peak glutathione levels", "setting": "[4]; after oral administration of SAMe", "result": "3 to 6", "unit": "h"},
      {"measurement": "intrahepatic glutathione after SAMe administration", "setting": "[4]; in vivo", "result": "restored to near-normal levels"}
    ]},
    {"compound": "[NH-]c1c[n+](N2CCOCC2)no1", "note": "[SIN-1, 3-morpholinosyndnonimine]", "values": [
      {"measurement": "HISS action after NOS blockade", "setting": "[5]", "result": "reverses HISS inhibition after NOS blockade"},
      {"measurement": "reversal of fasting induced HDIR by SIN-1 alone", "setting": "[3]; SIN-1 2.5 to 10 mg/kg i.p.v., overnight fast", "result": "do not reverse fasting induced HDIR"},
      {"measurement": "restoration of RIST index / insulin action by SIN-1 in BSO group", "setting": "[1]; BSO-treated rats, SIN-1 5 mg/kg i.p.v. after L-NAME, 5 mg/kg", "result": "only restored insulin action in the SG; also recorded: did not reverse the RIST index to control values"},
      {"measurement": "RIST index post-SIN-1", "setting": "[1]; saline/control group, SIN-1 5 mg/kg i.p.v. after L-NAME, 5 mg/kg", "result": "246.0±11.5 mg glucose/kg and 258.1±18.5 mg glucose/kg"}
    ]},
    {"compound": "CN1[C@@H]2CC[C@H]1C[C@@H](OC(=O)C(CO)c1ccccc1)C2", "note": "(some centres unmarked) [atropine]", "values": [
      {"measurement": "hepatic glucose response", "setting": "[6]; arterial-venous glucose response to bolus insulin after atropine", "result": "not notably altered"}
    ]},
    {"compound": "COc1ccccc1CNCCCCCCNCCCCCCCCNCCCCCCNCc1ccccc1OC", "note": "[methoctramine]", "values": [
      {"measurement": "dose producing full / similar degree of insulin resistance", "setting": "[6]", "result": "10^−6 μmol/kg"}
    ]},
    {"compound": "CN1CCN(CC(=O)N2c3ccccc3C(=O)Nc3cccnc32)CC1", "note": "[pirenzepine]", "values": [
      {"measurement": "dose producing a similar degree of insulin resistance", "setting": "[6]", "result": "10^−7 mmol/kg"}
    ]},
    {"compound": "Nitroprusside", "values": [
      {"measurement": "HISS action after NOS blockade", "setting": "[5]", "result": "not able to restore HISS action after NOS blockade"}
    ]}
  ]
}
